Experimental data as given in publication PMC4900628, “Critical Evaluation of P2X7 Receptor Antagonists in Selected Seizure Models” (PLoS ONE, 2016).

Legend:
rat P2X7R = molecular target: T1, rat P2X7R (Rattus norvegicus, UniProt Q64663); test: fluorometric Ca2+ assay (ATP-induced [Ca2+]i response) in HEKrP2X7 cells; type: cell-based; conditions: for IC50: HEKrP2X7 cells, fluo-4, 1 mM ATP, read-out: Potency IC50 ± SEM, Rat P2X7R
T1 construct: expressed in transfected cells; host or cells: HEK293 Flp-In T-REx (HEKrP2X7), tetracycline-induced
T1 sequence (Q64663 1-595): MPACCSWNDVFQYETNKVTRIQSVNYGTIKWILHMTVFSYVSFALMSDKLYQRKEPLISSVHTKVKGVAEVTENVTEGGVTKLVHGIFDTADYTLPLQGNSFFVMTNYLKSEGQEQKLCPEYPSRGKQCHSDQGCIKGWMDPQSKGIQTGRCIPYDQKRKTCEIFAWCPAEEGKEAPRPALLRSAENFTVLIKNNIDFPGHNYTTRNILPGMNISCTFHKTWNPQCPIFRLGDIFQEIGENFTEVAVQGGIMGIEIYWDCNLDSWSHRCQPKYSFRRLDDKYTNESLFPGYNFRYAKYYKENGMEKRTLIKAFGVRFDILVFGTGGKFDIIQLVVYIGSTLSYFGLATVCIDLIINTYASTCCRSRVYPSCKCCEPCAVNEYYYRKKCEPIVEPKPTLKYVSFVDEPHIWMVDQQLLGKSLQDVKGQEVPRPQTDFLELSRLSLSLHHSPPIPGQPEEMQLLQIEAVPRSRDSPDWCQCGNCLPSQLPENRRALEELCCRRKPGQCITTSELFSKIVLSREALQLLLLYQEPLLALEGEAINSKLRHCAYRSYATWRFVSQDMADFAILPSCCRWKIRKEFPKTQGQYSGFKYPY
Description: Cells were grown in a humidified incubator at 37°C in an atmosphere supplemented with 5% CO2. […] HEK293mP2X7 were cultured in DMEM under similar conditions as described above, but containing 100 μg/ml zeocin (Invitrogen). […] Expression of the transgene was induced by supplementing the medium with 1 μg/ml tetracycline (Sigma-Aldrich, Taufkirchen, Germany) 24 h prior to the experiments. All fluorometric Ca^2+ assays in cell suspensions were performed in 384-microwell plates (Corning, No. 3655, Lowell, MA, USA) with a fluorescence-imaging microplate reader (POLARstar Omega, BMG Labtech, Offenburg, Germany) (for details, see [61, 68]). […] Microwell plates were repetitively scanned every 16 s in the fast scanning mode of the device. […] Data were normalized to the baseline values before ATP application (F/F0). […] ATP-solution was freshly prepared in Mg^2+-free HBS solution and adjusted to pH 7.4. Aliquots of stock solutions were stored at -20°C and freshly diluted with the appropriate HBS solution. […] Results are expressed as mean ± SEM. […] In the PTZ-T, the number of animals in the group with clonic seizures and the latency time were analysed using Fisher's exact probability test and the Mann-Whitney rank sum test, respectively. For multiple comparisons of the latency time a one-way ANOVA with the Holm-Sidak post hoc test was used. The influence of AFC on the plasma and brain concentrations of the antiepileptic drugs was statistical compared using the same procedure. In the PTZ-kindling model, the mean seizure stage within a group was calculated in relation to the number of PTZ-injections. Statistical comparison between vehicle- and compound-treated groups in this model was performed with two-way repeated measures ANOVA, followed by the Holm-Sidak post hoc test. […] In fully kindled rats, the calculated mean seizure stage within a group after vehicle- and compound-treatment were compared using a paired t-test. P < 0.05 was the accepted minimum level of significance.

[1] = test system: PTZ-induced seizures in fully PTZ-kindled rats; test: PTZ-induced seizures in fully kindled rats; type: in vivo; conditions: for effect on mean seizure stage in fully kindled rats: TIIAS 30 mg/kg i.p., BBG 50 mg/kg i.p., AFC 25 mg/kg i.p., JNJ 30 mg/kg s.c., acute
Description: Results were expressed as mean seizure stages of a tested group in which the seizure behaviour after vehicle treatment (vehicle seizure stage) and after compound treatment (compound seizure stage), examined 3-4 days later, was matched. For comparison, the effectiveness of two antiepileptic drugs (carbamazepine and valproate) was also investigated. […] Chemicals, Toronto, Canada) was slowly added. The pH was adjusted with 1N NaOH (similar amount of NaOH as HCl), all with continuous stirring. […] The drug solutions or suspensions were prepared immediately before use; all doses refer to the salts. Animals in the control group received equivalent volumes of the vehicle (in mice always 10 ml/kg, in rats 1 ml/kg [JNJ], 3 ml/kg [AFC] or 4 ml/kg [BBG, TIIAS], depending on the solubility of the different compounds). Doses and peak time effects were selected on the basis of effective doses from corresponding in vivo studies in the literature: BBG (e.g.), tanshinone IIA (e.g.) and from manufacturer's experimental data: AFC, JNJ (see, [80]). Data were analysed using SigmaPlot (vers. 12.0, Systat Software, Erkrath, Germany) and SPSS (IBM SPSS Statistics 20, […], Germany), respectively. Results are expressed as mean ± SEM. […] In the MES-T, the current intensity inducing tonic hindlimb extensions in 50% of the mice (CC50 values with confidence limits for 95% probability) and the statistical significance was calculated using Probit analysis (SPSS). […] In the PTZ-T, the number of animals in the group with clonic seizures and the latency time were analysed using Fisher's exact probability test and the Mann-Whitney rank sum test, respectively. For multiple comparisons of the latency time a one-way ANOVA with the Holm-Sidak post hoc test was used. The influence of AFC on the plasma and brain concentrations of the antiepileptic drugs was statistical compared using the same procedure. In the PTZ-kindling model, the mean seizure stage within a group was calculated in relation to the number of PTZ-injections. Statistical comparison between vehicle- and compound-treated groups in this model was performed with two-way repeated measures ANOVA, followed by the Holm-Sidak post hoc test. The mean number of PTZ-injections needed to produce the first generalized seizure (≥ stage 3 convulsions) in the vehicle- versus compound-treated groups was statistically compared using a Mann-Whitney rank sum test. In fully kindled rats, the calculated mean seizure stage within a group after vehicle- and compound-treatment were compared using a paired t-test. P < 0.05 was the accepted minimum level of significance.

Row | SMILES | IC50 (rat P2X7R) [nM] | effect on mean seizure stage in fully kindled rats [1] | inhibition at 0.02 µM (rat P2X7R; read-out: inhibition of P2X7R / ATP-induced Ca2+ response corresponding to the achieved rat brain concentration) [%] | mean seizure stage, post-drug ([1]; fully kindled rats, 15 mg/kg s.c., pre-drug (vehicle) value 4.4, significant)
1 | Cc1c(S(=O)(=O)[O-])oc2c1C(=O)C(=O)c1c-2ccc2c1CCCC2(C)C.[Na+] [Tanshinone TIIAS, tanshinone IIS sulfonic sodium] | ≥ 30000 | tendency to reduce the mean seizure stage | – | –
2 | CCOc1ccc(Nc2ccc(/C(=C3C=C/C(=[N+](/CC)Cc4cccc(S(=O)(=O)[O-])c4)C=C/3C)c3ccc(N(CC)Cc4cccc(S(=O)(=O)O)c4)cc3C)cc2)cc1 [Brilliant Blue G] | 50 ± 10 | tendency to reduce the mean seizure stage | ~30 | –
3 | O=C(NCC1(N2CCN(c3ccccc3)CC2)CCOCC1)c1cccnc1Sc1ccccc1 [JNJ-47965567, N-[[4-(4-phenyl-piperazin-1-yl)tetrahydro-2H-pyran-4-yl]-methyl]-2-(phenyl-thio) nicotinamide] | 3 ± 0.1 | tendency to reduce the mean seizure stage | – | 2.9
